Measured values published in patent US20100075978A1, “SULFONAMIDE DERIVATIVES AS BRADYKININ ANTAGONISTS” (priority 2006, published 2010).
pIC50, pKi: −log10 of the molar value. Counter-ions that a name gives are not always drawn. Like-named read-outs stand apart in the source and are kept apart here.

Key:
[1] = biological target: T1, human recombinant bradykinin B1 receptor (Homo sapiens, UniProt P46663); experiment: Human recombinant bradykinin B1 receptor binding
T1 construct: purchased Euroscreen ES-091; host or cells: CHO cells
T1 sequence (P46663 1-353): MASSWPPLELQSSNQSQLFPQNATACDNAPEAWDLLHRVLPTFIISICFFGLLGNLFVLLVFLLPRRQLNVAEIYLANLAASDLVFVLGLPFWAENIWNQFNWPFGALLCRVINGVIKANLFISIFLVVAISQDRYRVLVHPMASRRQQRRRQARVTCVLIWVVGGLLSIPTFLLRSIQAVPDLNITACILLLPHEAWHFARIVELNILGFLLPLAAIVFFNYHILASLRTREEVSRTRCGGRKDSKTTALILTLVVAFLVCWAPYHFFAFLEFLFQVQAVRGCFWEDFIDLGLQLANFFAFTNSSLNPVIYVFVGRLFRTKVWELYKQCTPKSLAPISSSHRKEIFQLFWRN
Method: 1. Human Recombinant Bradykinin B1 Receptor Binding
Binding assays were carried out on human recombinant bradykinin) receptors (expressed in CHO cells) according to the Euroscreen Technical Data Sheet (Cat.No.:ES-091). 20 μg protein/tube was incubated with [3,4-prolyl-3,4-^3H(N)]-[Des-Arg^10] Kallidin as radioligand. Non specific binding was determined in the presence of 10 μM Lys-des-Arg^9-Bradykinin. The final incubation volume was 250 μl. Samples were incubated for 15 min. at 25° C. then were rapidly vacuum filtered through GF/B filters presoaked for at least 1 h in 0.5% PEI. Radioactivity was determined by liquid scintillation spectroscopy.

[2] = biological target: T2, recombinant human B1 receptors (Homo sapiens, UniProt P46663); experiment: Functional assay: cytosolic calcium ion concentration measured with plate reader fluorimeter in CHO-B1 cells, agonist LysDABK; type: cell-based
T2 construct: host or cells: CHO (CHO-B1)
T2 sequence (P46663 1-353): T1 sequence (P46663 1-353)
Method: Assessment of Antagonist Potency at B1 and B2 Receptors In Vitro by Measurement of Cytosolic Calcium Ion Concentration with a Plate Reader Fluorimeter in Cells Expressing Recombinant Human B1 or B2 Receptors
Chinese hamster ovary (CHO) cells stably expressing recombinant human B1 (CHO-B1, Euroscreen) or B2 (CHO-B2, Perkin-Elmer) receptors were cultured in Dulbecco's Modified Eagle's Medium (DMEM) containing 10% Fetal Calf Serum (FCS), 100 U/ml penicillin, 0.1 mg/ml streptomycin, 0.25 μg/ml amphotericin B, 1% Minimum Essential Medium Eagle (MEM), non essential amino acid solution, 600 μg/ml G418, 1% pyruvate (for the B2 cell line). Cells were kept at 37° C. in a humidified incubator in an atmosphere of 5% CO2/95% air and were passaged 1:4 three times a week. Cells were plated at 1.5-2.5×10^4 cell/well on standard 96-well microplates, measurements of cytosolic calcium ion concentration ([Ca^2+]i) were carried out 1-2 days after cell plating.
Measurements of [Ca^2+]i were carried out on CHO-B1 and CHO-B2 cells stably expressing human B1 and B2 receptors, respectively. Cells were grown in standard 96-well microplates and before the measurement were loaded with a fluorescent Ca^2+-sensitive dye, fluo-4/AM (2 μM): after removing the culture medium the dye was added to the cells (dissolved in assay buffer: 145 mM NaCl, 5 mM KCl, 2 mM MgCl2, 2 mM CaCl2, 10 mM HEPES, 20 mM D-glucose, 2 mM probenecid, 100 μl/well) and cells were incubated at 37° C. in a humidified incubator in an atmosphere of 5% CO2/95% air for 40-120 min. To stop dye loading cells were washed twice with assay buffer. After washing, various concentrations of the test compounds (diluted in extracellular medium from a DMSO stock solution, final DMSO concentration was <0.1%) or buffer were added to each well depending on the experimental setup. After incubation at 37° C. for 20-25 min. baseline and agonist-evoked changes of [Ca^2+]i were measured column by column with a plate reader fluorimeter (Fluoroskan Ascent, Labsystems). Excitation and detection of emission was carried out from the bottom of the plate. Filters used for Fluo-4: excitation filter—485 nm, emission filter—538 nm. The whole measurement process was performed at 37° C. and was controlled by custom software. Inhibitory potency of the test compounds was assessed by measuring the reduction in the agonist-evoked [Ca^2]i-elevation in the presence of different concentrations of the compounds. The agonists were LysDABK for CHO-B1, and bradykinin for CHO-B2 cells. Agonists were applied at an EC80 concentration, the EC80-values were derived from daily determined dose-response curves. Fluorescence data were expressed as ΔF/F (fluorescence change normalized to baseline). All treatments on a single plate were measured in multiple wells. Data from all wells with the same treatment were averaged and the average values were used for analysis. Inhibitory potency of a compound at a single concentration point was expressed as percent inhibition of the control agonist response. Sigmoidal concentration-inhibition curves were fitted to the data (derived from at least three independent experiments) and IC50-values were determined as the concentration that produces half of the maximal inhibition caused by the compound.

[3] = radioligand [3H]-[Des-Arg10] Kallidin, CHO cell membranes, read-out: B1 binding
[4] = CHO-B1 cells, LysDABK at EC80, [Ca2+]i, read-out: B1 func.

| pKi [1, 3] | pIC50 [2, 4] | Compound | pKi ([1]; reference compounds, binding test, read-out: Ki) | pIC50 ([2]; reference compounds, functional test, read-out: IC50) |
| --- | --- | --- | --- | --- |
| > 7.70 | > 7.70 | O=C(Nc1ccc(N2CCC(N3CCCCC3)CC2)cc1)c1ccc(S(=O)(=O)Nc2ccccc2Oc2ccc(Br)cc2Cl)cc1 [Example 169, N-(4-[1,4′]Bipiperidinyl-1′-yl-phenyl)-4-[2-(4-bromo-2-chloro-phenoxy)-phenylsulfamoyl]-benzamide] |  |  |
| 7.00 to 7.70 | 7.00 to 7.70 | COc1ccc(Oc2ccccc2NS(=O)(=O)c2ccc(C(=O)NCCCN3CCC(N4CCCCC4)CC3)cc2)c(Cl)c1 [Example 147, N-(3-[1,4′]Bipiperidinyl-1′-yl-propyl)-4-[2-(2-chloro-4-methoxy-phenoxy)-phenylsulfamoyl]-benzamide] |  |  |
| > 7.70 | > 7.70 | O=C(NCCCN1CCC(N2CCCCC2)CC1)c1ccc(S(=O)(=O)Nc2cc(F)ccc2Oc2ccc(Br)cc2)cc1 [Example 102, N-(3-[1,4′]Bipiperidinyl-1′-yl-propyl)-4-[2-(4-bromo-phenoxy)-5-fluoro-phenylsulfamoyl]-benzamide] |  |  |
| 7.00 to 7.70 | 7.00 to 7.70 | O=C(NCCN1CCN(Cc2ccccn2)CC1)c1ccc(S(=O)(=O)Nc2ccccc2Oc2ccc(Br)cc2)cc1 [Example 99, 4-[2-(4-Bromo-phenoxy)-phenylsulfamoyl]-N-[2-(4-pyridin-2-ylmethyl-piperazin-1-yl)-ethyl]-benzamide] |  |  |
| > 7.70 | > 7.70 | O=C(NCCCCC1CCNCC1)c1ccc(S(=O)(=O)Nc2ccccc2Oc2ccc(Cl)cc2Cl)cc1 [Example 170, 4-[2-(2,4-Dichloro-phenoxy)-phenylsulfamoyl]-N-(4-piperidin-4-yl-butyl)-benzamide hydrochloride] |  |  |

The remaining lines, values behind:

| Compound | pKi [1, 3] | pIC50 [2, 4] | pKi ([1]; reference compounds, binding test, read-out: Ki) | pIC50 ([2]; reference compounds, functional test, read-out: IC50) |
| --- | --- | --- | --- | --- |
| CCCN1C(=O)[C@H](NC(=O)Nc2ccc(N3CCN(c4ccncc4)CC3)cc2)N=C(CCc2ccccc2)c2ccccc21 [compound 2, (R)—N-[2,3-dihydro-2-oxo-5-(2-phenyl-ethyl)-1-propyl-1H-1,4-benzodiazepin-3-yl]-N′-{4-[4-(4-pyridinyl)-1-piperazinyl]-phenyl}-urea, reference compound] |  |  | 9.23 | 8.72 |
| O=C(NCCc1ccc(C2=NCCN2)cc1)c1ccc(S(=O)(=O)Nc2ccccc2Oc2ccc(Cl)cc2Cl)cc1 [Example 2, 4-[2-(2,4-Dichloro-phenoxy)-phenylsulfamoyl]-N-{2-[4-(4,5-dihydro-1H-imidazol-2-yl)-phenyl]-ethyl}-benzamide trifluoroacetate] | > 7.70 | > 7.70 |  |  |
| Cc1cccc(N2CCN(CCNC(=O)c3ccc(S(=O)(=O)Nc4ccccc4Oc4ccc(Cl)cc4Cl)cc3)CC2)n1 [Example 36, 4-[2-(2,4-Dichloro-phenoxy)-phenylsulfamoyl]-N-{2-[4-(6-methyl-pyridin-2-yl)-piperazin-1-yl]-ethyl}-benzamide] | > 7.70 | 7.00 to 7.70 |  |  |
| O=C(CCNC(=O)c1ccc(S(=O)(=O)Nc2ccccc2Oc2ccc(Cl)cc2Cl)cc1)NCC1CCNCC1 [Example 37, 4-[2-(2,4-Dichloro-phenoxy)-phenylsulfamoyl]-N-{2-[(piperidin-4-ylmethyl)-carbamoyl]-ethyl}-benzamide acetate/hydrochloride mixed salt] | 7.00 to 7.70 | 7.00 to 7.70 |  |  |
| O=C(NCCN1CCN(c2ccncc2)CC1)c1cccc(S(=O)(=O)Nc2ccccc2Oc2ccc(Cl)cc2Cl)c1 [Example 10, 3-[2-(2,4-Dichloro-phenoxy)-phenylsulfamoyl]-N-[2-(4-pyridin-4-yl-piperazin-1-yl)-ethyl]-benzamide dihydrochloride] | > 7.70 | 7.00 to 7.70 |  |  |
| O=C(c1ccc(S(=O)(=O)Nc2ccccc2Oc2ccc(Cl)c(Cl)c2)cc1)N1CCN(CCCN2CCCCC2)CC1 [Example 87, N-[2-(3,4-Dichloro-phenoxy)-phenyl]-4-[4-(3-piperidin-1-yl-propyl)-piperazine-1-carbonyl]-benzenesulfonamide] | 6.30 to 7.00 | 6.30 to 7.00 |  |  |
| O=C(Nc1ccc(N2CCC(N3CCCCC3)CC2)cc1)c1ccc(S(=O)(=O)Nc2cc(F)ccc2Oc2ccc(Br)cc2)cc1 [Example 58, N-(4-[1,4′]Bipiperidinyl-1′-yl-phenyl)-4-[2-(4-bromo-phenoxy)-5-fluoro-phenylsulfamoyl]-benzamide] | > 7.70 | > 7.70 |  |  |
